The target of assay [1] is Human α2δ-1 subunit of Cav2.2 calcium channel (Homo sapiens, UniProt P54289). The experiment in a line: Human α2δ-1 subunit of Cav2.2 calcium channel assay ([3H]-gabapentin binding). The note with it: binding to the α2δ-1 subunit of voltage-gated calcium channels, expressed as Ki class; + also covers inhibition between 1% and 50%. In short, it runs like this:
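Human α2δ-1 enriched membranes (2.5 μg) incubated 60 min at 27° C. with 15 nM [3H]-gabapentin in 10 mM Hepes-KOH pH 7.4; non-specific binding with 10 μM pregabalin. Filtration binding; % inhibition at 1 or 10 μM, or Ki from five concentrations.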

In a further assay the target is T1, Human σ1 receptor (Homo sapiens, UniProt Q99720).
T1 construct: expressed in transfected cells; host or cells: HEK-293
The assay is described as follows: Human σ1 receptor radioligand assay ([3H](+)-pentazocine binding). The note with it: binding to the σ1 receptor, expressed as Ki class; + also covers inhibition between 1% and 50%. The procedure, abridged: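 Membranes (7 μg) were incubated with 5 nM [3H](+)-pentazocine in 50 mM Tris-HCl pH 8 for 120 min at 37° C. Non-specific binding was defined with 10 μM haloperidol. Values are % inhibition at 1 or 10 μM or Ki from five concentrations, read by filtration and scintillation counting.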

Sequence of Human α2δ-1 subunit of Cav2.2 calcium channel (P54289 25-1103): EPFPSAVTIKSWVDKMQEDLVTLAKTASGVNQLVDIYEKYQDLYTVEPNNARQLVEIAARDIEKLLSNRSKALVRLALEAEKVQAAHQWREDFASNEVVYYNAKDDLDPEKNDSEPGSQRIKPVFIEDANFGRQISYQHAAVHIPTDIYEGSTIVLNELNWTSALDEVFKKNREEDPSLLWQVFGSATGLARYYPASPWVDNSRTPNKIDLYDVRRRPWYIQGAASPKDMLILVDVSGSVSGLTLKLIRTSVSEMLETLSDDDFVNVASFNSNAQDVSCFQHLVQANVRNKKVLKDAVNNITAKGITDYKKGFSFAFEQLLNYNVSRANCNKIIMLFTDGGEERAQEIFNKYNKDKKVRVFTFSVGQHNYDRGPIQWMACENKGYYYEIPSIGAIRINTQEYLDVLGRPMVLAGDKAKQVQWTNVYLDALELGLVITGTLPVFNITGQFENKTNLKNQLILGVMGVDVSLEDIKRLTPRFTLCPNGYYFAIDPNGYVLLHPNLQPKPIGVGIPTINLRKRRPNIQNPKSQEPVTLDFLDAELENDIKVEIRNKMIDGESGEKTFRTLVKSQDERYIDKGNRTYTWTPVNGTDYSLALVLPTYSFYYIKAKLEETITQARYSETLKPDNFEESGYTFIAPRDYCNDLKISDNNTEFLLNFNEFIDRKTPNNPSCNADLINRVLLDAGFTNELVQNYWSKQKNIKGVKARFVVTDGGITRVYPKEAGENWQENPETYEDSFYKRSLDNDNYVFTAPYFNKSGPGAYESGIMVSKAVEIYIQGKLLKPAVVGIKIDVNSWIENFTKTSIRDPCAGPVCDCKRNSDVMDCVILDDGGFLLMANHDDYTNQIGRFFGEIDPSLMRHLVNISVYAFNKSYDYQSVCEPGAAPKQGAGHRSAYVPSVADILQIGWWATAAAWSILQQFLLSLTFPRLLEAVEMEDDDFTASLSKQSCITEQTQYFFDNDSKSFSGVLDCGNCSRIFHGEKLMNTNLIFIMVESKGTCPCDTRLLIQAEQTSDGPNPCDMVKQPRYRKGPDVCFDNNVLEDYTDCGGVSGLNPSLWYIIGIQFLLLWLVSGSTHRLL
T1 sequence (Q99720 whole entry): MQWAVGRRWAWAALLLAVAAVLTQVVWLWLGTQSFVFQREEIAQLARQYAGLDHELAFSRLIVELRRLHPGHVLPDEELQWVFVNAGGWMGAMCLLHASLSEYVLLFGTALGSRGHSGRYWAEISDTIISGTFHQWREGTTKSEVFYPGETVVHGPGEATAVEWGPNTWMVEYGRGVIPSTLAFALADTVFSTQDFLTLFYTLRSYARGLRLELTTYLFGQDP

With `CCCC(c1nc2cnc(OC)cc2c(=O)n1CC)N1CCCN(C)CC1` (centres unmarked) [Example 191, 3-ethyl-6-methoxy-2-(1-(4-methyl-1,4-diazepan-1-yl)butyl)pyrido[3,4-d]pyrimidin-4(3H)-one], the Ki – broadly, the equilibrium dissociation constant of an inhibitor or competing ligand from its target – in assay [1] is under 500 nM; at Human σ1 receptor it was over 1000 nM.

On to `CCCC(c1nc2cnc(C(F)(F)F)cc2c(=O)n1CC)N1CCCN(C)CC1` (centres unmarked) [Example 192, 3-ethyl-2-(1-(4-methyl-1,4-diazepan-1-yl)butyl)-6-(trifluoromethyl)pyrido[3,4-d]pyrimidin-4(3H)-one], for which the Ki in assay [1] was under 500 nM; on Human σ1 receptor, over 1000 nM.

`CCC[C@@H](c1nc2ncc(F)cc2c(=O)n1CC1CC1)N1CCN[C@H](C)CC1` [Example 193, 3-(cyclopropylmethyl)-6-fluoro-2-((S)-1-((R)-5-methyl-1,4-diazepan-1-yl)butyl)pyrido[2,3-d]pyrimidin-4(3H)-one]: the inhibition constant Ki was over 5000 nM in assay [1] and over 1000 nM at Human σ1 receptor.

Regarding `CCC[C@H](c1nc2ncc(F)cc2c(=O)n1CC1CC1)N1CCN[C@@H](C)CC1` [Example 195, 3-(cyclopropylmethyl)-6-fluoro-2-((R)-1-((S)-5-methyl-1,4-diazepan-1-yl)butyl)pyrido[2,3-d]pyrimidin-4(3H)-one], the Ki in assay [1] was under 500 nM; at Human σ1 receptor it was over 1000 nM.

Consider `CCC[C@H](c1nc2ncc(F)cc2c(=O)n1CC1CC1)N1CCN[C@H](C)CC1` [Example 196, 3-(cyclopropylmethyl)-6-fluoro-2-((R)-1-((R)-5-methyl-1,4-diazepan-1-yl)butyl)pyrido[2,3-d]pyrimidin-4(3H)-one], for which the values for the Ki (in assay [1]; on Human σ1 receptor) were under 500 nM and over 1000 nM, respectively.

With `CCC[C@H](c1nc2ncc(Br)cc2c(=O)n1CC)N1CCNC[C@H](C)C1` [Example 197, 6-bormo-3-ethyl-2-((R)-1-((S)-6-methyl-1,4-diazepan-1-yl)butyl)pyrido[2,3-d]pyrimidin-4(3H)-one], the Ki in assay [1] was under 500 nM; on Human σ1 receptor it was over 1000 nM.

In the case of `CCC[C@@H](c1nc2ncc(Br)cc2c(=O)n1CC)N1CCNC[C@@H](C)C1` [Example 198, 6-bromo-3-ethyl-2-((S)-1-((R)-6-methyl-1,4-diazepan-1-yl)butyl)pyrido[2,3-d]pyrimidin-4(3H)-one], the figures for the Ki (in assay [1]; on Human σ1 receptor) were over 5000 nM and over 1000 nM, respectively.

As to `CCC[C@H](c1nc2ncc(Br)cc2c(=O)n1CC)N1CCNC[C@@H](C)C1` [Example 199, 6-bromo-3-ethyl-2-((R)-1-((R)-6-methyl-1,4-diazepan-1-yl)butyl)pyrido[2,3-d]pyrimidin-4(3H)-one], the Ki was under 500 nM in assay [1] and over 1000 nM at Human σ1 receptor.

With `CCC[C@@H](c1nc2ncc(Br)cc2c(=O)n1CC)N1CCNC[C@H](C)C1` [Example 200, 6-bromo-3-ethyl-2-((S)-1-((S)-6-methyl-1,4-diazepan-1-yl)butyl)pyrido[2,3-d]pyrimidin-4(3H)-one], the values for the Ki (in assay [1]; on Human σ1 receptor) were over 5000 nM and over 1000 nM, respectively.

As for `CCC[C@@H](c1nc2ncc(F)cc2c(=O)n1CC)N1CCCN(C)CC1` [Example 202, (S)-3-ethyl-6-fluoro-2-(1-(4-methyl-1,4-diazepan-1-yl)butyl)pyrido[2,3-d]pyrimidin-4(3H)-one], the inhibition constant (Ki) is over 5000 nM in assay [1] and over 1000 nM at Human σ1 receptor.

Take `CCCC(c1nc2ccc(O)cc2c(=O)n1CC)N1CCCN(C)CC1` (centres unmarked) [Example 203, 3-Ethyl-6-hydroxy-2-(1-(4-methyl-1,4-diazepan-1-yl)butyl)quinazolin-4(3H)-one]: the Ki in assay [1] was under 500 nM; at Human σ1 receptor, over 1000 nM.

Regarding `CCCC(c1nc2ccc(-c3ccccc3)cc2c(=O)n1CC)N1CCCN(C)CC1` (centres unmarked) [Example 204, 3-Ethyl-2-(1-(4-methyl-1,4-diazepan-1-yl)butyl)-6-phenylquinazolin-4(3H)-one], the figures for the Ki (in assay [1]; on Human σ1 receptor) were under 500 nM and over 1000 nM, respectively.

`CCCC(c1nc2ccc(CC)cc2c(=O)n1CC)N1CCCN(C)CC1` (centres unmarked) [Example 205, 3,6-diethyl-2-(1-(4-methyl-1,4-diazepan-1-yl)butyl)quinazolin-4(3H)-one]: the inhibition constant (Ki) in assay [1] was under 500 nM; on Human σ1 receptor it was over 1000 nM.

Turning to `CCCC(c1nc2ccc(NC3CCN(C)CC3)cc2c(=O)n1CC)N1CCCN(C)CC1` (centres unmarked) [Example 206, 3-Ethyl-2-(1-(4-methyl-1,4-diazepan-1-yl)butyl)-6-((1-methylpiperidin-4-yl)amino)quinazolin-4(3H)-one], the Ki in assay [1] was under 500 nM; on Human σ1 receptor, over 1000 nM.

Consider `CCCC(c1nc2ccc(Cc3ccccc3)cc2c(=O)n1CC)N1CCCN(C)CC1` (centres unmarked) [Example 207, 6-Benzyl-3-ethyl-2-(1-(4-methyl-1,4-diazepan-1-yl)butyl)quinazolin-4(3H)-one], for which the Ki in assay [1] was under 500 nM; on Human σ1 receptor, 500 to 1000 nM.

As for `CCCC(c1nc2ccc(Br)cc2c(=O)n1CC(=O)O)N1CCCN(C)CC1` (centres unmarked) [Example 208, 2-(6-Bromo-2-(1-(4-methyl-1,4-diazepan-1-yl)butyl)-4-oxoquinazolin-3(4H)-yl)acetic acid], the Ki in assay [1] is over 5000 nM; at Human σ1 receptor, over 1000 nM.

With `CCC[C@H](c1nc2ccc(F)cc2c(=O)n1CC)N1CCCN(C)CC1` [Example 209, (R)-3-Ethyl-6-fluoro-2-(1-(4-methyl-1,4-diazepan-1-yl)butyl)quinazolin-4(3H)-one], the Ki (in assay [1]; at Human σ1 receptor) was under 500 nM throughout.

Regarding `CCC[C@H](c1nc2ccc(F)cc2c(=O)n1CC)N1CCCN(CC)CC1` [Example 210, (R)-3-ethyl-2-(1-(4-ethyl-1,4-diazepan-1-yl)butyl)-6-fluoroquinazolin-4(3H)-one], the Ki (in assay [1]; at Human σ1 receptor) was under 500 nM each time.

As for `CCC[C@H](c1nc2ccc(F)cc2c(=O)n1CCC)N1CCCN(C)CC1` [Example 211, (R)-6-fluoro-2-(1-(4-methyl-1,4-diazepan-1-yl)butyl)-3-propylquinazolin-4(3H)-one], the Ki (in assay [1]; at Human σ1 receptor) was under 500 nM throughout.

For the molecule `CCC[C@H](c1nc2ccc(F)cc2c(=O)n1CCC)N1CCCN(CC)CC1` [Example 212, (R)-2-(1-(4-ethyl-1,4-diazepan-1-yl)butyl)-6-fluoro-3-propylquinazolin-4(3H)-one], the Ki (in assay [1]; on Human σ1 receptor) was under 500 nM each time.

`CCC[C@H](c1nc2ccc(I)cc2c(=O)n1CC)N1CCCN(C)CC1` [Example 213, (R)-3-ethyl-6-iodo-2-(1-(4-methyl-1,4-diazepan-1-yl)butyl)quinazolin-4(3H)-one]: the Ki in assay [1] was under 500 nM; at Human σ1 receptor it was 500 to 1000 nM.

As for `CCC[C@H](c1nc2ccc(F)cc2c(=O)n1CC(C)C)N1CCCN(C)CC1` [Example 214, (R)-6-fluoro-3-isobutyl-2-(1-(4-methyl-1,4-diazepan-1-yl)butyl)quinazolin-4(3H)-one], the Ki (in assay [1]; on Human σ1 receptor) was under 500 nM each time.

Turning to `CCC[C@H](c1nc2ccc(F)cc2c(=O)n1CC(C)C)N1CCCN(CC)CC1` [Example 215, (R)-2-(1-(4-ethyl-1,4-diazepan-1-yl)butyl)-6-fluoro-3-isobutylquinazolin-4(3H)-one], the Ki (in assay [1]; at Human σ1 receptor) was under 500 nM each time.

In the case of `CCC[C@H](c1nc2ccc(F)cc2c(=O)n1C)N1CCCN(C)CC1` [Example 216, (R)-6-fluoro-3-methyl-2-(1-(4-methyl-1,4-diazepan-1-yl)butyl)quinazolin-4(3H)-one], the figures for the Ki (in assay [1]; at Human σ1 receptor) were 500 to 5000 nM and under 500 nM, respectively.

As to `CCC[C@H](c1nc2ccc(F)cc2c(=O)n1C)N1CCCN(CC)CC1` [Example 217, (R)-2-(1-(4-ethyl-1,4-diazepan-1-yl)butyl)-6-fluoro-3-methylquinazolin-4(3H)-one], the Ki is over 5000 nM in assay [1] and under 500 nM on Human σ1 receptor.

As to `CCC[C@H](c1nc2ccc(F)cc2c(=O)n1CC1CC1)N1CCCN(CC)CC1` [Example 218, (R)-3-(cyclopropylmethyl)-2-(1-(4-ethyl-1,4-diazepan-1-yl)butyl)-6-fluoroquinazolin-4(3H)-one], the Ki (in assay [1]; at Human σ1 receptor) was under 500 nM each time.

For `CCC[C@H](c1nc2ccc(F)cc2c(=O)n1CC1CC1)N1CCCN(C)CC1` [Example 219, (R)-3-(cyclopropylmethyl)-6-fluoro-2-(1-(4-methyl-1,4-diazepan-1-yl)butyl)quinazolin-4(3H)-one], the Ki (in assay [1]; at Human σ1 receptor) was under 500 nM in each case.

`CCC[C@H](c1nc2cc(F)c(OC)cc2c(=O)n1CC)N1CCCN(C)CC1` [Example 220, (R)-3-ethyl-7-fluoro-6-methoxy-2-(1-(4-methyl-1,4-diazepan-1-yl)butyl)quinazolin-4(3H)-one]: the Ki in assay [1] was under 500 nM; on Human σ1 receptor, over 1000 nM.

For the molecule `CCC[C@H](c1nc2ccc(F)cc2c(=O)n1CCC(C)C)N1CCCN(CC)CC1` [Example 221, (R)-2-(1-(4-ethyl-1,4-diazepan-1-yl)butyl)-6-fluoro-3-isopentylquinazolin-4(3H)-one], the results for the inhibition constant Ki (in assay [1]; on Human σ1 receptor) were over 5000 nM and under 500 nM, respectively.

On to `CCC[C@H](c1nc2ccc(F)cc2c(=O)n1C(C)C)N1CCCN(C)CC1` [Example 222, (R)-6-fluoro-3-isopropyl-2-(1-(4-methyl-1,4-diazepan-1-yl)butyl)quinazolin-4(3H)-one], for which the Ki in assay [1] is over 5000 nM; on Human σ1 receptor, 500 to 1000 nM.

Regarding `CCC[C@H](c1nc2ccc(F)cc2c(=O)n1C(C)C)N1CCCN(CC)CC1` [Example 223, (R)-2-(1-(4-ethyl-1,4-diazepan-1-yl)butyl)-6-fluoro-3-isopropylquinazolin-4(3H)-one], the Ki in assay [1] was over 5000 nM; at Human σ1 receptor it was under 500 nM.

Values taken from patent publication US12479830B2, “Homopiperazinyl and homopiperidinyl quinazolin-4(3H)-one derivatives having multimodal activity against pain” (ESTEVE PHARMACEUTICALS, S.A., priority 2019, dated 2025).
